Residual activity and IC50 data for five molecules are collected here from ChEMBL document CHEMBL1145318, “Amide-substituted farnesylcysteine analogs as inhibitors of human isoprenylcysteine carboxyl methyltransferase” (Bioorg Med Chem Lett, 2006).

In test [1] the target is T1, Protein-S-isoprenylcysteine O-methyltransferase (Homo sapiens, UniProt O60725). As to the kind of experiment: Inhibition of human Icmt in Saccharomyces cerevisiae cell membrane relative to control by SPA; values are per cent of control. Further details: concentration or dose not given beside the values.
In test [2] the target is T1, Protein-S-isoprenylcysteine O-methyltransferase. As to the kind of experiment: Inhibition of human Icmt by methanol vapour diffusion assay.

T1 sequence (O60725 whole entry, the tested form may be a part): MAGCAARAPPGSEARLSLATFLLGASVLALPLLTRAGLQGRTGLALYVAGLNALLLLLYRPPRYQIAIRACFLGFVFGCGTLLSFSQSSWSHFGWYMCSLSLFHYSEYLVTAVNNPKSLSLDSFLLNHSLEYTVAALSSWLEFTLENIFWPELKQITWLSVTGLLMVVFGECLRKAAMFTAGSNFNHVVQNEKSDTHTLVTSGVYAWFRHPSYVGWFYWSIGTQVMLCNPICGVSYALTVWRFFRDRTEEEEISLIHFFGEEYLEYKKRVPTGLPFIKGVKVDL

For `CC(C)=CCC/C(C)=C/CC/C(C)=C/CSC[C@H](NC(=O)c1cc2ccccc2s1)C(=O)O`, the residual activity – broadly, the signal under treatment as a percentage of the control signal – in test [1] was 28%. The IC50 – broadly, the concentration that gives 50% inhibition – in test [2] was 20.3 µM.

In test [1], `CC(C)=CCC/C(C)=C/CC/C(C)=C/CSC[C@H](NC(=O)c1cc([N+](=O)[O-])cc([N+](=O)[O-])c1)C(=O)O` registered a residual activity of 37.1%. Besides, the IC50 in test [2] stood at 14.3 µM.

For `CC(C)=CCC/C(C)=C/CC/C(C)=C/CSC[C@H](NC(=O)c1ccc([N+](=O)[O-])cc1)C(=O)O`, the residual activity in test [1] amounted to 50.1%. In test [2], this molecule returned an IC50 of 16.6 µM.

On to `COc1ccc(-c2ccc(C(=O)N[C@@H](CSC/C=C(\C)CC/C=C(\C)CCC=C(C)C)C(=O)O)o2)cc1`, for which the residual activity in test [1] is 35.1%. In test [2], this molecule gave an IC50 of 17.4 µM.

With `CC(C)=CCC/C(C)=C/CC/C(C)=C/CSC[C@H](NC(=O)c1cc(Cl)cc(Cl)c1)C(=O)O`, the residual activity in test [1] is 33.5%. This molecule also registered a concentration for half-maximal inhibition (IC50) in test [2] of 23 µM.
